{
  "source": "patent US10532028B2",
  "about": "“Method to improve characteristics of spray dried powders and granulated materials, and the products thereby produced” (ISP INVESTMENTS LLC, priority 2005, dated 2020)",
  "key": {"[1]": {"experiment": "Crystallinity by (modulated) differential scanning calorimetry", "type": "physicochemical", "settings": "MDSC, heat-only conditions, aluminum hermetic pans", "description": "• 1. 1 part Carbamazepine (CBZ) was spray dried with 1 part polyvinylpyrrolidone (PVP) (Plasdone® K-29/32, International Specialty Products) and 1 part polyvinylpyrrolidone-co-vinyl acetate (PVP-VA) (Plasdone® S-630, International Specialty Products) from solvent and solvent/non-solvent solutions at 10% solids by weight. Solvent was dichloromethane (20%), non-solvent was acetone (80%). • 2. Spray drying was conducted on an SD-Micro® (Niro, Inc.) spray dryer under identical experimental conditions other than solvent composition. • 3. Results: • a. […] CBZ from solvent/non-solvent solution • 1) Particle morphology: spherical as shown in FIG. 2B. • 2) Particle size (from optical microscopy): 3 μm-5 μm • 3) Residual solvent immediately after spray drying: 2.0% • 4) Bulk density: 0.057 g/mL • 5) Density after 1250 taps: 0.18 g/mL • 6) Spherical morphology was unexpected, based on previous examples, expected particles to be dimpled, raisin-like, or folded.\n• The two solutions were spray dried under identical conditions on an SD-Micro® (Niro, Inc.) spray dryer to yield spray dried powders. • 2. The two compositions were analyzed for EFV crystallinity using differential scanning calorimetry. Both powders were amorphous, as indicated by the absence of an EFV melt endotherm (FIG. 5). • 3. […]"}, "[2]": {"experiment": "CoQ10 USP dissolution, apparatus II (paddles)", "type": "physicochemical", "settings": "37° C.", "from_the_text": "• 1. Coenzyme Q10 (CoQ10) was spray dried with polyvinylpyrrolidone (PVP) (Plasdone® K-29/32, International Specialty Products) in the ratio 1 CoQ10:3 PVP at 20% total solids. Two spray dried powders were produced, one from 100% dichloromethane (DCM) and the other from a blend of 80% DCM, 20% acetone. CoQ10 is soluble in both DCM and acetone, while PVP is only soluble in DCM. All other spray drying conditions remained the same. • 2. Sample analysis included USP dissolution using apparatus II (paddles). All samples were hand-filled into size 1 gelatin capsules. The bath temperature was 37° C. with a paddle speed of 50 rpm for the first 60 minutes and then 200 rpm for an additional 15 minutes. The dissolution media contained 2% Cremophor® EL (BASF Corp.), and 4% Acconon® MC8 (Abitec Corp.). […] It is surprising that the time for 50% CoQ10 dissolution (t50%) was shortened from 18 minutes (100% solvent) to 5 minutes (solvent/non-solvent blend). Similarly, the time for 80% CoQ10 dissolution (t80%) was shortened from 68 minutes to 12 minutes by the switch from 100% solvent to the solvent/non-solvent blend. • 4. […] Other advantages of the solvent/non-solvent blend approach include lower residual solvent content and higher density."}, "[3]": {"settings": "Table 1, 75 minutes test, 2% Cremophor EL + 4% Acconon MC8"}},
  "data": [
    {"smiles": "COC1=C(OC)C(=O)C(C/C=C(\\C)CC/C=C(\\C)CC/C=C(\\C)CC/C=C(\\C)CC/C=C(\\C)CC/C=C(\\C)CC/C=C(\\C)CC/C=C(\\C)CC/C=C(\\C)CCC=C(C)C)=C(C)C1=O", "note": "[CoQ10 (as received), Coenzyme Q10]", "values": [
      {"measurement": "crystallinity", "setting": "[1]", "value": 100, "unit": "%"},
      {"measurement": "max. CoQ10 release", "setting": "[2]; 50 rpm for 60 min then 200 rpm for 15 min, 2% Cremophor EL + 4% Acconon MC8, size 1 gelatin capsules", "value": 4.3, "unit": "%"},
      {"measurement": "T80% (time for 80% CoQ10 dissolution)", "setting": "[2]; [3]", "value": "not attained"},
      {"measurement": "t50% (time for 50% CoQ10 dissolution)", "setting": "[2]; [3]", "value": "not attained"}
    ]}
  ]
}
